Reference: patent publication US9308161B2, “Substance for restoring normal co-expression and interaction between the LOX and NRAGE proteins” (BASF Beauty Care Solutions France S.A.S., priority 2005, dated 2016)
“And” between values parts separate entries of the source, which are not always exact repeats. Identical values can stand only once.

Legend:
transglutaminase = test: Transglutaminase immunolabelling intensity in reconstructed skin model (MIMESKIN); type: cell-based, human; details: positive control, calcium chloride 1.5 mM
Experimental: The reconstructed skin model is in particular achieved according to the following protocol: • 0.5 to 1.10^6 fibroblasts of normal human skin are sown on a matrix substrate based on collagen/glycosaminoglycan/chitosan, and then grown in a nutritive medium, for example DMEM-Glutamax supplemented with 10% of calf serum; ascorbic acid, preferably at a final concentration of 1 mM; EGF (epidermal grow factor), preferably at a final concentration of 10 ng/ml; Normocin, preferably at a final concentration of 100 μg/ml, for 21 days. • 0.5 to 1.10^6 […], and then grown in a nutritive medium, for example DMEM-Glutamax/Ham F-12 (ratio 3:1 v/v) supplemented with calf serum, ascorbic acid, preferably at a final concentration of 1 mM; EGF (epidermal growth factor), preferably at a final concentration of 10 ng/ml; hydrocortisone, preferably at a final concentration of 0.4 μg/ml; umuline, preferably at a final concentration of 0.12 IU/ml; isuprel, preferably at a final concentration of […]; triiodothyronine, preferably at a final concentration of 2.10^−9M; adenine, preferably at a final concentration of 24.3 μg/ml; Normocin, preferably at a final concentration of 100 μg/ml. The culture was continued for 7 days in an immersed condition. The cultures were then placed at the air-liquid interface for 14 additional days in the same medium as the immersion culture, except for the calf serum, hydrocortisone, isuprel, triidothyronine and umuline.
The active ingredient (ephedra extract) is advantageously diluted in the culture media described above at 0.5 and 1% and used 3 days after the respective sowing of fibroblasts and keratinocytes (i.e. days 3 to 21 and days 24 to 42). […]
Viewing of immunolabellings is performed under photon microscopy (Axioskop2plus—Zeiss, Germany) and quantification of the transglutaminase immunolabellings was performed by image analysis (Lucia—Nilon, France) and the effects of the treatment with the active ingredient are evaluated (Holm-Sidak statistical test, p<0.01).

LOX = LOX messenger RNA by quantitative RT-PCR, keratinocytes in culture in the absence of calcium differentiation (Example 15); type: cell-based, human; details: mRNA relative to actine vs untreated control (NT); 24 hours; no calcium differentiation; 0.1% to 1% (v/v)
Experimental: The actives were tested on normal human keratinocytes from young subjects, obtained by enzymatic extraction of human biopsies collected after surgical resection and cultivated as monolayers in a K-SFM (keratinocyte serum free medium with supplements) defined medium, supplemented with antibiotics at 37° C. under 5% CO2. The cells are sown at the second passage in 24-well plates, for example with an amount of 30 000 cells per cm^2 and grown until about 95% confluence. […] Active ingredients of different origins (vegetable, biotechnological origin or synthesized molecules for example) are tested from 0.1% volume/volume (v/v) to 1% (v/v). An active ingredient from vegetable origin is tested for example at 1% (v/v) and a synthesized molecule is tested for example at 0.1% (v/v) […] The obtained extracts are then filtered or distilled in order to recover the soluble fraction which is then filtered at 0.45 μm preferably. The biotechnological hydrolysates are obtained by fermentation of vegetable extracts in the presence of microorganisms, advantageously from the Lactobacillus or Saccharomyces family. These hydrolysates are then preferably filtered to 0.45 μm. The incubation is advantageously performed for 24 hours at 37° C. under 5% CO2, in a K-SFM medium without growth factors but with antibiotics. The negative controls are either the culture medium by itself, or the culture medium containing from 0.1% (v/v) to 1% (v/v) of the solvent used during the method for extracting the tested extracts. […] The untreated cells (NT control) are dry frozen at -80° C. after rinsing with pH 7.4 phosphate buffer. […] Modification of the expression of the genes is achieved by real time RT-PCR which measures the expression of each gene relative to actine (housekeeping gene) and expressed as a % of the untreated negative control (NT). […] According to the experimentation, the measuring threshold of C(T) (=cycle threshold) was set for T between 0.05 and 0.01 and then an arbitrary measuring unit is calculated for each gene according to the formula: […] […]

[1] = system: differentiated human keratinocytes; test: Apoptosis by TUNEL in monolayer cultures of differentiated human keratinocytes, LOX activity inhibited; type: cell-based
Experimental: The study was carried out on monolayer cultures of differentiated human keratinocytes at confluence. The effect of LOX on apoptosis was identified by inhibiting its activity through the addition of β-APN (0.02% w/v—(weight/volume)) under normal or proapoptotic conditions (thermal shock caused by exposure to a temperature of 45° C.±0.5° C. for 1 h 30 min).
Cell death by apoptosis is detected and quantified using the TUNEL (terminal deoxynucleotidyl transferase mediated dUTP nick end labeling) technique, which is based on labeling of the […] accompanying apoptosis.
The first step consists in labeling the DNA breaks with TdT (terminal deoxynucleotidyl transferase), which catalyzes the polymerization of the fluorescein-labeled nucleotides at the free 3′-OH end of the DNA. The second step consists in detecting the incorporated fluorescein with an alkaline phosphatase-conjugated anti-fluorescein antibody after incubation with the substrate for the latter.
The experiment is validated by means of a positive control obtained by fragmentation of the DNA with a DNase solution, and a negative control obtained by depositing phosphate buffer.

Question: Which results are given for `[Ca+2].[Cl-].[Cl-]` [Calcium, calcium chloride]?
Answer: INTENSITY Average (transglutaminase): 0.067; Variation vs NT (transglutaminase): 59%; INTENSITY of transglutaminase labelling (single values) (transglutaminase; day 28-42): 0.061 and 0.076 and 0.064

Question: With `CC/C=C/CC(=O)OCC` [Ethyl trans 3-hexanoate] as the compound, how does the “LOX modulation vs NT” value (LOX) read?
Answer: The value was 2.3.

Question: `CCC(C)C(=O)OC` (stereo not drawn) [Methyl 2 methyl butyrate] was tested. Which “LOX modulation vs NT” value (LOX) did it give?
Answer: The value was 2.5.

Question: How did the “LOX modulation vs NT” value (LOX) turn out when `OC[C@@H](O)[C@H](O)[C@@H](O)CO` [Xylitol] was run?
Answer: Its value is 2.8.

Question: How did the “Without thermal shock (% of labeled cells)” value ([1]; TUNEL, β-APN 0.02% w/v, normal conditions) turn out when `N#CCCN` [β-APN, β-aminopropionitrile] was run?
Answer: The value was 56% of labeled cells.

Question: What about the “With thermal shock (% of labeled cells)” value ([1]; TUNEL, β-APN 0.02% w/v, thermal shock 45° C.±0.5° C. for 1 h 30 min) of the same compound?
Answer: The value was 81% of labeled cells.

Question: What about the effect on apoptosis ([1]; inhibition of the enzymatic activity of LOX by β-APN) of the same compound?
Answer: Its effect on apoptosis is “substantial increase in apoptosis”.
